Source: patent US4537769A (priority 1982, dated 1985)
Like-named read-outs stand apart in the source and are kept apart here.

System: H7N1 neuraminidase
Type: biochemical, influenza virus
Conditions: for Units of Activity: 37° C. for 24 hours; for Neuraminidase Activity-24 Hrs Post 37° C.: H7N1 vaccine
[1] = H7N1 vaccine with additive at .03%
[2] = H7N1 vaccine with additive at .07%
[3] = H7N1 vaccine with additive at .02%
[4] = H7N1 vaccine with additive at .05%
[5] = H7N1 vaccine with additive at .04%

C[C@H](N)C(=O)O [Alanine]
Units of Activity [1]: 9.0 Nanomoles of N--acetyl neurami

N[C@@H](CC(=O)O)C(=O)O [Aspartic Acid]
Units of Activity [2]: 5.9 Nanomoles of N--acetyl neurami

N[C@@H](CCC(=O)O)C(=O)O [Glutamic Acid]
Units of Activity (H7N1 vaccine with additive at .18%): 4.5 Nanomoles of N--acetyl neurami

NCC(=O)O [Glycine]
Units of Activity [3]: 8.5 Nanomoles of N--acetyl neurami

N[C@@H](Cc1c[nH]cn1)C(=O)O [Histidine]
Units of Activity [3]: 13.1 Nanomoles of N--acetyl neurami | Neuraminidase Activity-24 Hrs Post 37° C. (No. 1: Histidine 0.02 % w/v): 13.0 | Neuraminidase Activity-24 Hrs Post 37° C. (No. 2: Histidine 0.05 % w/v): 17.3 | Neuraminidase Activity-24 Hrs Post 37° C. (No. 3: Histidine 0.09 % w/v): 23.8 | Neuraminidase Activity-24 Hrs Post 37° C. (No. 4: Histidine 0.13 % w/v): 27.9

CC[C@H](C)[C@H](N)C(=O)O [Isoleucine]
Units of Activity [4]: 5.2 Nanomoles of N--acetyl neurami

CC(C)C[C@H](N)C(=O)O [Leucine]
Units of Activity (H7N1 vaccine with additive at .08%): 7.3 Nanomoles of N--acetyl neurami

NCCCC[C@H](N)C(=O)O [Lysine]
Units of Activity [2]: 8.5 Nanomoles of N--acetyl neurami

CSCC[C@H](N)C(=O)O [Methionine]
Units of Activity [3]: 8.9 Nanomoles of N--acetyl neurami

N[C@@H](Cc1ccccc1)C(=O)O [Phenylalanine]
Units of Activity [5]: 9.1 Nanomoles of N--acetyl neurami

O=C(O)[C@@H]1CCCN1 [Proline]
Units of Activity (H7N1 vaccine with additive at .09%): 12.3 Nanomoles of N--acetyl neurami | Neuraminidase Activity-24 Hrs Post 37° C. (No. 5: Proline 0.09 % w/v): 12.3 | Neuraminidase Activity-24 Hrs Post 37° C. (No. 6: Proline 0.18 % w/v): 17.5 | Neuraminidase Activity-24 Hrs Post 37° C. (No. 7: Proline 0.36 % w/v): 26.2 | Neuraminidase Activity-24 Hrs Post 37° C. (No. 8: Proline 0.54 % w/v): 30.7

N[C@@H](CO)C(=O)O [Serine]
Units of Activity [4]: 9.1 Nanomoles of N--acetyl neurami

C[C@@H](O)[C@H](N)C(=O)O [Threonine]
Units of Activity [5]: 6.7 Nanomoles of N--acetyl neurami

N[C@@H](Cc1c[nH]c2ccccc12)C(=O)O [Tryptophan]
Units of Activity (H7N1 vaccine with additive at .01%): 10.4 Nanomoles of N--acetyl neurami

N[C@@H](Cc1ccc(O)cc1)C(=O)O [Tyrosine]
Units of Activity [1]: 4.4 Nanomoles of N--acetyl neurami

CC(C)[C@H](N)C(=O)O [Valine]
Units of Activity (H7N1 vaccine with additive at .06%): 6.7 Nanomoles of N--acetyl neurami
